How the values were obtained:
[1] = tested on: BHK-21 cells (mitochondrial movements); assay: Nocodazole treatment, time-lapse live imaging of BHK-21 cells with MitoTracker dye and WFA-Verde; format: cell-based, hamster; conditions: 10 μM Nocodazole
Experimental: BHK-21 cells were cultured in glass bottom plates and treated with MitoTracker® dye alone or separately with 10 μM Nocodazole. […] Time-lapse images were collected every 5 seconds in each of the four treatment groups.

vimentin and GFAP = conditions: laser injured mice, day 7, 1 μM intraperitoneal, sacrificed 24 h later
Description: Mice of both sexes were anesthetized and subjected to 4 equally spaced laser burns focused on the retinal pigment epithelium (RPE). Using the Meridian laser attached to Micron III retinal fundus microscope (Phoenix Research labs) we used strong injury (150 mW with 50 msec pulse) to promote retinal gliosis with CNV.
The mouse imaging system (Micron III, Phoenix Research Labs, CA) provided with an image-guided Meridian Merilas 532 nm (Nd:YVO) laser was employed. Using the Diode laser 625-645 nm as an aiming beam the continuous wave, KTP frequency doubled Nd:YVO 532 nm laser was employed to deliver laser injuries in anesthetized mice. Here four (150 mW; 10-μm diameter, 50 msec duration) laser shots equally spaced around the optic nerve were delivered to disrupt the RPE. […] Mice were sacrificed 24 h later and eyes enucleated for tissue sectioning and antibody staining to vimentin and GFAP.

[2] = tested on: mCherry-vimentin (soluble vimentin); assay: Live cell target detection in BHK-21 cells transfected with pmCherry-vimentin-N-18; format: cell-based, hamster; conditions: 250 nM, 5 min, early spreading cells
Chain of mCherry-vimentin (soluble vimentin) (P08670 2-466 limits assumed): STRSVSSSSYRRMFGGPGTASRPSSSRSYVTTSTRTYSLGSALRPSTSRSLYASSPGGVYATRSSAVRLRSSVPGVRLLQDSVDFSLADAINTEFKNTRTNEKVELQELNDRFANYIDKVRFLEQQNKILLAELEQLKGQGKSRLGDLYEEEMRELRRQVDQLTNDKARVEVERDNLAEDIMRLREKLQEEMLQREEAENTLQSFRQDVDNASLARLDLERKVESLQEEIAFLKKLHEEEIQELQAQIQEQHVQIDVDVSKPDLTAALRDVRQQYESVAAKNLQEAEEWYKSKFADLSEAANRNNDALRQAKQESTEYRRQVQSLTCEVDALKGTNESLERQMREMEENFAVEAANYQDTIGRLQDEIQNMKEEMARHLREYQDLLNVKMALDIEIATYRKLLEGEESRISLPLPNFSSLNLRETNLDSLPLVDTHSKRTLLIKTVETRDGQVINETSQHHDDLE
Description: Soluble vimentin is a broad definition for the biochemical properties of vimentin forms that are extracted in low salt buffers (composed of tetramers, short oligomers, unit length filaments etc.). As such, these soluble vimentin forms are more dynamic structures. We employed a genetic approach to introduce a hybrid mCherry-vimentin construct to express vimentin as a fusion protein with the red fluorescent protein mCherry.
BHK-21 cells were transiently transfected with pmCherry-vimentin-N-18 plasmid (Adgene, MA) using lipofectamine, according to vendor instructions. Cells were trypsinized and replated in glass bottom culture plates (MatTek, MA) for 1 h in complete DMEM medium. […] Cells were immediately imaged live by epifluorescence microscopy, without fixation. […] Asterisks mark the position of the nucleus.

[3] = target: vimentin in corneal myofibroblasts (Mus musculus, UniProt P20152)
Chain of vimentin in corneal myofibroblasts (P20152 2-466 limits assumed): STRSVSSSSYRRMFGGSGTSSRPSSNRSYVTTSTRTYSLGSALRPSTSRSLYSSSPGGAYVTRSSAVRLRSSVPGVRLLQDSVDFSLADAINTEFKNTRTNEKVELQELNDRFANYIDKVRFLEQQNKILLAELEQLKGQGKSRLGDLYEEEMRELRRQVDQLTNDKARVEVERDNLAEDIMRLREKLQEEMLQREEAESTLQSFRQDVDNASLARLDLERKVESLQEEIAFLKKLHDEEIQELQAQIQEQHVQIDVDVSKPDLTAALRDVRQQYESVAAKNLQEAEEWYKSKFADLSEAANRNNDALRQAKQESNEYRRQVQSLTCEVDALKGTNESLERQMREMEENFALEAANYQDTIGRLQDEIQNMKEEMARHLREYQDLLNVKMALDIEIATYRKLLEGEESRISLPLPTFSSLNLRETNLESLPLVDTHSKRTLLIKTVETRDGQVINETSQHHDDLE
Experimental: Alkali injury to the cornea causes blindness due to the development of corneal fibrosis from overexpression of IF proteins in resident myofibroblasts. This model is extensively employed to investigate corneal fibrosis and role of IF proteins.
Thus, anesthetized mice were injured with alkali by application of 0.15N NaOH for 1 min to the cornea, eyes was extensively and the corneal epithelium gently removed. During the process of wound healing the resident keratocytes become activated into wound fibroblasts and subsequently into myofibroblasts to overexpress both vimentin and desmin, the two type III IFs in the cornea. Thus, heightened expression of these IF targets compared to uninjured corneas, the latter expressing very low levels of vimentin and no desmin, provided the rationale to compare uninjured mice. […] Mice were sacrificed after 1 h, eyes enucleated and cryosections were obtained.

[4] = tested on: vimentin (p-Ser38Vimentin)
Description: Cells were fixed, permeabilized, and prepared for immunohystochemistry (IHC) analysis.

[5] = target: T1, soluble vimentin species bound to motile mitochondrial species (Mesocricetus auratus, UniProt P02544); assay: Motility quantification of WFA-Verde-labeled particles in BHK-21 cells (FIJI/Image J); format: cell-based, hamster; conditions: 250 nM, images at 5 sec intervals
T1 construct: BHK-21 cells were plated in glass bottom culture plates for 18 h to promote spreading; endogenous in cells; host or cells: BHK-21
T1 sequence (P02544 2-465 limits assumed): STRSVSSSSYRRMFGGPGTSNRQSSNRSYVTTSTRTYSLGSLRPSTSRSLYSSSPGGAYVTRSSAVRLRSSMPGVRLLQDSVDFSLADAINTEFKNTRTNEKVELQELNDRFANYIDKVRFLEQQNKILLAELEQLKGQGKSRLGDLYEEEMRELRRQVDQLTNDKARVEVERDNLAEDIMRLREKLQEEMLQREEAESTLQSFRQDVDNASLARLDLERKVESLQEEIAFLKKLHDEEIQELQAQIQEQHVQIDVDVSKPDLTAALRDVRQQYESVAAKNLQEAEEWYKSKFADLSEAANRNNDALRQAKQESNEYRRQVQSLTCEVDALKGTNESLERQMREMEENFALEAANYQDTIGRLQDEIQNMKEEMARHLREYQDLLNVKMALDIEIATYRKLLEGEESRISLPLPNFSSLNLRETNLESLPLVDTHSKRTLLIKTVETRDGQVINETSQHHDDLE

[6] = target: T2, vimentin associated with mitochondria (Mesocricetus auratus, UniProt P02544); assay: Co-staining with MitoTracker dye in live BHK-21 cells; format: cell-based, hamster; conditions: 250 nM, 5 mins, serum-free medium
T2 construct: endogenous in cells; host or cells: BHK-21
T2 sequence (P02544 2-465 limits assumed): as above
Experimental: BHK-21 cells were plated overnight and prior to staining placed in serum-free medium. […] Cells were washed and directly imaged live at dual wavelengths.

soluble vimentin = target: T3, soluble vimentin (Mesocricetus auratus, UniProt P02544); assay: Dynamic movement of vimentin structures, live imaging of BHK-21 cells; format: cell-based, hamster; conditions: 250 nM, 5 min, SF medium, images at 5 sec intervals
T3 construct: BHK-21 cells were plated in glass bottom culture plates for 18 h to promote spreading; endogenous in cells; host or cells: BHK-21
T3 sequence (P02544 2-465 limits assumed): as above

[7] = tested on: human vimentin-cherry hybrid; assay: Time-lapse imaging of BHK-21 cells expressing polymerized mCherry-vimentin; format: cell-based, hamster; conditions: 250 nM, 5 minutes, serum-free medium, BHK-21 cells with mCherry-vimentin, replated 18 h
Chain of human vimentin-cherry hybrid (P08670 2-466 limits assumed): as the sequence (P08670 2-466 limits assumed) above
Experimental: Transfection of human vimentin-cherry hybrid plasmid into fibroblasts and examination of polymerized vimentin structures under live cell imaging experiments identify numerous vimentin filaments that show some common, and yet, other distinct staining from the WFA-Verde-labeled structures. BHK-21 cells were transiently transfected with pmCherry-Vimentin-N-18 plasmid (Adgene, MA) using lipofectamine. Cells were cultured to establish the expression of plasmid and then trypsinzed and replated in glass culture plates for 18 h. […] Images at the starting point (T1), mid-point (T2) and at end of 3 minutes (T3).

[8] = target: T4, vimentin (Muller glial filaments) (Mus musculus, UniProt P20152); assay: In vivo delivery of probe to non injured mice, retina cryosections; conditions: 1 μM intraperitoneal, eyes enucleated after 24 h, FITC channel
T4 construct: from tissue; host or cells: mouse retina (in vivo, cryosections)
T4 sequence (P20152 2-466 limits assumed): as the sequence (P20152 2-466 limits assumed) above
Description: Cryosections of the eye were subjected to fixation and subsequently stained with anti-vimentin antibody (V9) to mark Muller glial filaments.

Compound | effect on movement of filaments ([1]; time-lapse every 5 seconds) | labeling of Muller glia at laser lesion (vimentin and GFAP) | co-localization with Vim-Cherry [2] | overlap between vimentin antibody staining and probe binding ([3]; alkali injured corneas, majority of labeled cells) | probe staining of corneas from injured eyes ([3]; alkali injured mice, day 14, intraperitoneal, sacrificed after 1 h) | metabolic conversion in vivo ([3]; mouse, in vivo, ip) | time to reach the target organ after systemic delivery ([3]; mouse, in vivo, ip) [h] | probe staining of non-injured corneas ([3]; non-injured mice, intraperitoneal, sacrificed after 1 h, corneal stroma) | labeling of vimentin structures in cell cytoplasm ([4]; 3.5 μM, 1 h, rabbit corneal fibroblast cells) | co-localization of probe with p-Ser38Vimentin ([4]; 3.5 μM, 1 h, rabbit corneal fibroblast cells, fixed, anti-pSer38Vimentin antibody) | effect on cytoskeleton ([4]; short exposure to higher dose (3.5 μM, 1 h), well spread cells) | rate of movement of majority of motile WFA-Verde-labeled particles [5] [micrometer/second] | overlap of probe-stained vimentin structures with MitoTracker dye [6] | overlap of WFA-Verde and MitoTracker staining under nocodazole [1] | speed of WFA-Verde labeled dot-like structure (soluble vimentin) [μm/sec] | staining of vimentin structures at low dose [7] | incorporation of probe into vimentin in non-gliotic retina [8]
COC(=O)Nc1nc2ccc(C(=O)c3cccs3)cc2[nH]1 [Nocodazole, nocodazole, reference compound] | causes filaments to be arrested in movements |  |  |  |  |  |  |  |  |  |  |  |  |  |  |  | 
CC1=C(COC(=O)CNC(=O)CCCCCNC(=O)COc2ccc(C3=[N+]4C(=Cc5ccc(-c6cccs6)n5[B-]4(F)F)C=C3)cc2)C(=O)OC(C(C)C2CCC3C4CC5OC56C(O)C=CC(=O)C6(C)C4CCC23C)C1 (stereo not drawn) [WFA-Rosa, Withaferin A-BODIPY-TR-X] |  | showed a similar pattern illuminating Muller glia |  |  |  |  |  |  |  |  |  |  |  |  |  |  | 
Withaferin A-BODIPY-FL [WFA-Verde] |  | labeled the Muller glia extensively | shows co-localization with Vim-Cherry | extensive overlap | abundance of WFA-Verde binding to corneal myofibroblasts | likely also not metabolically converted | ≤ 1 | very low level of background staining | does label both soluble and vimentin structures throughout the cell cytoplasm | extensive co-localization | did not dramatically alter the cytoskeleton | ~0.01 | extensive overlap | extensive overlap | ~0.5 | does not stain to all vimentin structures | minimal incorporation
